According to patent US20200345010A1, “FUNGICIDAL OXADIAZOLES” (FMC Corporation, priority 2019, published 2020):
Marks after values point to notes of the source that are not given here.

Experiments:
Phakopsora pachyrhizi = test: Test A: Asian soybean rust control on soybean seedlings; assay type: in vivo; settings: 10 ppm test suspension; soybean seedlings sprayed the day before inoculation; 100 = 100% disease control, 0 = none
Source text: (§1) General protocol for preparing test suspensions for Tests A-C: the test compounds were first dissolved in acetone in an amount equal to 3% of the final volume and then suspended at the desired concentration (in ppm) in acetone and purified water (50/50 mix by volume) containing 250 ppm of the surfactant PEG400 (polyhydric alcohol esters). The resulting test suspensions were then used in Tests A-C.
The test solution was sprayed to the point of run-off on soybean seedlings. The following day the seedlings were inoculated with a spore suspension of Phakopsora pachyrhizi (the causal agent of Asian soybean rust) and incubated in a saturated atmosphere at 22° C. for 24 h, and then moved to a growth chamber at 22° C. for 8 days, after which time visual disease ratings were made.
(§2) A rating of 100 indicates 100% disease control and a rating of 0 indicates no disease control (relative to the controls). A dash (-) indicates the compound was not tested.

Zymoseptoria tritici = test: Test B: wheat leaf blotch control on wheat seedlings; assay type: in vivo; settings: 250 ppm test suspension (asterisk); wheat seedlings sprayed the day before inoculation; 100 = 100% disease control, 0 = none
Source text: as §1
(§3) The test solution was sprayed to the point of run-off on wheat seedlings. The following day the seedlings were inoculated with a spore suspension of Zymoseptoria tritici (the causal agent of wheat leaf blotch) and incubated in a saturated atmosphere at 24° C. for 48 h, and then moved to a growth chamber at 20° C. for 17 days, after which time disease ratings were made.
as §2

[1] = tested on: Puccinia recondita f. sp. tritici; test: Test C: wheat leaf rust control on wheat seedlings; assay type: in vivo; settings: wheat seedlings sprayed the day before inoculation, 100 = 100% disease control, 0 = none
Source text: as §1
as §3, with “Puccinia recondita f. sp.” for “Zymoseptoria”, “rust)” for “blotch)”, “20°” for “24°”, “24” for “48”, “7” for “17”
as §2

Row | melting point | SMILES | Test A disease control rating (Phakopsora pachyrhizi) | Test B disease control rating (Zymoseptoria tritici) | Test C disease control rating ([1]; 250 ppm test suspension (asterisk)) | Test C disease control rating ([1]; 10 ppm test suspension) | Test C disease control rating ([1]; 50 ppm test suspension)
1 | 219 to 223 °C | Cl.O=S1(=NCc2ccc(-c3noc(C(F)(F)F)n3)cc2)CCNCC1 [Compound 24] | 99% | 18* % | 99* % | – | –
2 | 120 to 124 °C | O=S1(=NCc2ccc(-c3noc(C(F)(F)F)n3)cc2)c2ccccc2-c2ccccc21 [Compound 41] | 97% | 86* % | – | 86% | –
3 | 58 to 63 °C | O=S1(=NCc2ccc(-c3noc(C(F)(F)F)n3)cc2)CCCC1 [Compound 51] | 100% | 52* % | – | – | 100** %

Further lines, the compound ahead of its results:

Row | SMILES | melting point | Test A disease control rating (Phakopsora pachyrhizi) | Test B disease control rating (Zymoseptoria tritici) | Test C disease control rating ([1]; 250 ppm test suspension (asterisk)) | Test C disease control rating ([1]; 10 ppm test suspension) | Test C disease control rating ([1]; 50 ppm test suspension)
4 | O=S1(=Nc2ccc(-c3noc(C(F)(F)F)n3)cc2)c2ccccc2-c2ccccc21 [Compound 38] | 230 to 234 °C | 0% | 1* % | – | 0% | –
5 | CCCS(C)(=O)=NCc1ccc(-c2noc(C(F)(F)F)n2)cc1 (stereo not shown) [Compound 46] | – | 100% | 1* % | – | 100% | –
6 | CC(N=S(C)(C)=O)c1ccc(-c2noc(C(F)(F)F)n2)cc1 (stereo not shown) [Compound 52] | – | 79% | 25* % | – | – | 98** %
